Where two headings read alike, the source gives them in different places.
Columns and labels:
[1] = parameters: method as in EMBL-EBI database; settings: ref EMBL-EBI database, cited from earlier work; for HBA: hydrogen-bond acceptor; for HBD: hydrogen-bond donor
[2] = parameters: method as in PMID 35901930; settings: fraction unbound in plasma; regression dataset; cited from earlier work
[3] = tested on: organic anion-transporting polypeptide; parameters: method as in El-Kattan et al. [36] and DrugBank; settings: With / Without; ref El-Kattan et al. [36] and DrugBank; cited from earlier work
[4] = Fitting of hepatic clearance models (MWSM, WSM, PTM, DM) to IPRL FH vs fu data; settings: male, Sprague-Dawley, rat, isolated perfused rat liver
Description: (§1) Under this condition, hepatic availability (FH) served as a clear and practical indicator of CLH. […] Based on the principles of the WSM, Equations (3) and (4) were derived by applying Equations (1) and (2), in conjunction with the concept that CLH equals the liver blood flow multiplied by the extraction ratio. Subsequently, data fitting was performed using these formulas.
(§2) Rosuvastatin consistently aligned with the MWSM predictions throughout the experiment.
(§3) The extraction recovery, calibration curves and retention time of each compound are shown in Table S1, Figures S1 and S2, respectively. All available experimental data were included in the analysis. The formula and experimental data were processed by Prism software v10.4.1 (GraphPad Software, Inc) to generate figures and calculate the degree of fit of different models.

[5] = tested on: isolated perfused rat liver; assay: as above
Description: as §1, §2, §3

p-glycoprotein = tested on: p-glycoprotein; parameters: method as in El-Kattan et al. [36] and DrugBank; settings: With / Without; ref El-Kattan et al. [36] and DrugBank; cited from earlier work
human serum albumin = human serum albumin (Homo sapiens, UniProt P02768); assay: Rapid equilibrium dialysis (RED), fraction unbound at various HSA concentrations; assay type: in vitro ADME; settings: drug 1 μg/mL in Krebs buffer, 37 °C, read-out: fraction unbound (fu)
Description: The rapid equilibrium dialysis (RED) apparatus and test inserts were purchased from Thermo Fisher Scientific (Rockford, IL, USA). The unbound fraction of each assessed drug was determined using RED. Briefly, a drug was diluted to 1 μg/mL in Krebs buffer containing different concentrations of HSA. Five hundred microliters of the assessed drug and each of the different HSA concentrations were added to the sample chamber of an insert and 750 μL of blank buffer was added to the adjacent chamber. The loaded inserts were then assembled on a Teflon-based plate.

[6] = Krebs buffer with 0% HSA, 0% HSA
[7] = Krebs buffer with 0.1% HSA, 0.1% HSA
[8] = Krebs buffer with 2% HSA, 2% HSA
[9] = Krebs buffer with […] HSA, 0.25% HSA

Chain of human serum albumin (P02768 25-609): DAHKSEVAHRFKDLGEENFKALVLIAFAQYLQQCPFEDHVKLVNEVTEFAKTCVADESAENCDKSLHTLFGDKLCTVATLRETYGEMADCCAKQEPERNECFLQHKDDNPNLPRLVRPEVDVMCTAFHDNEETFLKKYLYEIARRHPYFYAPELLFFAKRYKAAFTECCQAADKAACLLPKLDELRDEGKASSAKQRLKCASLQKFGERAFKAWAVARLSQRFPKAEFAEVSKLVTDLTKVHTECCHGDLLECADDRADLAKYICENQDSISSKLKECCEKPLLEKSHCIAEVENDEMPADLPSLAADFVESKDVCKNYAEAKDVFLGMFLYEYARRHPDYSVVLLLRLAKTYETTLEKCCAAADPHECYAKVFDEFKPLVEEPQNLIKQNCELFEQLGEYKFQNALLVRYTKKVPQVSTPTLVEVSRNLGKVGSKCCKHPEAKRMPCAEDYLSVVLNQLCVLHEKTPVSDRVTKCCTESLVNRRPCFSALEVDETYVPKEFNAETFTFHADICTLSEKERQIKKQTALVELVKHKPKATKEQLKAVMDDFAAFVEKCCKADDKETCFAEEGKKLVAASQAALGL

Row | Structure (SMILES) | Aromatic Rings [1] | Heavy Atoms [1] | fu p [2] | OATP [3] | P-gp (p-glycoprotein) | HBA [1] | HBD [1] | Optimal Model ([5]; HSA interval 0–2%) | sum of squares, DM ([5]; HSA interval 0–2%) | sum of squares, Modified WSM ([5]; HSA interval 0–2%) | sum of squares, PTM ([5]; HSA interval 0–2%) | sum of squares, WSM ([5]; HSA interval 0–2%) | fraction unbound at 8 h, 1 μg/mL (human serum albumin; [6]) | fraction unbound at 8 h, 1 μg/mL (human serum albumin; [7]) | fraction unbound at 8 h, 1 μg/mL (human serum albumin; [8]) | fraction unbound at 8 h, 1 μg/mL (human serum albumin; [9]) | also measured
1 | CN1C(=O)CN=C(c2ccccc2)c2cc(Cl)ccc21 [Diazepam] | 2 | 20 |  |  |  |  |  |  |  |  |  |  |  |  |  |  | 
2 | O=C(O)Cc1ccccc1Nc1c(Cl)cccc1Cl [Diclofenac] | 2 | 19 | 0.004 | Without | Without | 3 | 2 |  |  |  |  |  |  |  |  |  | fraction unbound [4]: 0.576 to 0.872; Optimal Model ([5]; HSA interval 0–0.01%): MWSM; sum of squares, DM ([5]; HSA interval 0–0.01%): 0.0792; sum of squares, Modified WSM ([5]; HSA interval 0–0.01%): 0.0278; sum of squares, PTM ([5]; HSA interval 0–0.01%): 0.0702; sum of squares, WSM ([5]; HSA interval 0–0.01%): 0.0885; Optimal Model ([5]; HSA interval 0.025–2%): WSM; sum of squares, DM ([5]; HSA interval 0.025–2%): 0.1400; sum of squares, Modified WSM ([5]; HSA interval 0.025–2%): 0.2923; sum of squares, PTM ([5]; HSA interval 0.025–2%): 0.1790; sum of squares, WSM ([5]; HSA interval 0.025–2%): 0.1194; CLint, DM ([5]; male, Sprague-Dawley, rat): 35.94; CLint, PTM ([5]; male, Sprague-Dawley, rat): 27.63; CLint, WSM ([5]; male, Sprague-Dawley, rat): 43.68
3 | CNCCC(Oc1ccc(C(F)(F)F)cc1)c1ccccc1 (centres unmarked) [Fluoxetine] |  |  |  |  |  |  |  | WSM | 0.2062 | 5.9630 | 0.2096 | 0.1154 | 0.99 | 0.45 | 0.05 | 0.4 | fraction unbound at 8 h, 1 μg/mL (human serum albumin; Krebs buffer with […] HSA, 0.025% HSA): 0.87
4 | CC(C)c1nc(N(C)S(C)(=O)=O)nc(-c2ccc(F)cc2)c1/C=C/[C@@H](O)C[C@@H](O)CC(=O)O [Rosuvastatin] | 2 | 33 | 0.129 | With | Without | 9 | 3 | MWSM | 1.4550 | 0.2132 | 1.0670 | 1.8440 | 0.99 | 0.9 | 0.29 | 0.77 | PSA ([1]; polar surface area, in Å2 (unit assumed)): 140.9; fraction unbound at 8 h, 1 μg/mL (human serum albumin; Krebs buffer with 0.375% HSA, 0.375% HSA): 0.65; fraction unbound at 8 h, 1 μg/mL (human serum albumin; Krebs buffer with 0.5% HSA, 0.5% HSA): 0.51; fraction unbound at 8 h, 1 μg/mL (human serum albumin; Krebs buffer with 1% HSA, 1% HSA): 0.42

From article PMC12299470, “Selection of an Optimal Metabolic Model for Accurately Predicting the Hepatic Clearance of Albumin-Binding-Sensitive Drugs” (Pharmaceuticals, 2025)
